# Experimental data: ChEMBL document CHEMBL4613209, “Quinolone hybrids and their anti-cancer activities: An overview” (Eur J Med Chem, 2019)
# System: L1210
# Assay: Cytotoxicity against mouse L1210 cells assessed as reduction in cell viability by MTT assay
# Assay type: functional, cell-based
row,Structure (SMILES),IC50 [µM]
1,CCn1cc(-c2nc(SCc3nnc(-c4ccc([N+](=O)[O-])cc4)o3)n(CN(C)C)n2)c(=O)c2cc(F)c(N3CCN(C)CC3)cc21,1.5 to 24.5
2,CCn1cc(-c2nc(SCc3nnc(-c4ccc(OC)cc4)o3)n(CN(C)C)n2)c(=O)c2cc(F)c(N3CCN(C)CC3)cc21,1.5 to 24.5
3,CCn1cc(-c2nc3scc(-c4ccc(F)cc4)n3n2)c(=O)c2cc(F)c(N3CCN(C)CC3)cc21,3.6 to 56.8
4,CCn1cc(-c2nc3scc(-c4ccc(OC)c(O)c4)n3n2)c(=O)c2cc(F)c(N3CCN(C)CC3)cc21,3.6 to 56.8
5,COc1ccccc1-c1csc2nc(-c3cn4c5c(c(N6CCN(C)CC6)c(F)cc5c3=O)OCC4C)nn12 (stereo not drawn),3.6 to 56.8
6,COc1cc(-c2csc3nc(-c4cn5c6c(c(N7CCN(C)CC7)c(F)cc6c4=O)OCC5C)nn23)ccc1O (stereo not drawn),3.6 to 56.8
7,COc1ccccc1-c1nnc(CSc2nnc(-c3cn4c5c(c(N6CCN(C)CC6)c(F)cc5c3=O)OCC4C)o2)o1 (stereo not drawn),5.7 to 24.7
8,CC1COc2c(N3CCN(C)CC3)c(F)cc3c(=O)c(-c4nc5scc(-c6ccc7c(c6)OCO7)n5n4)cn1c23 (stereo not drawn),3.6 to 56.8
9,CCn1cc(-c2nc3scc(-c4ccc5c(c4)OCO5)n3n2)c(=O)c2cc(F)c(N3CCN(C)CC3)cc21,3.6 to 56.8
10,Cc1ccc(-c2nnc(CSc3nnc(-c4cn5c6c(c(N7CCN(C)CC7)c(F)cc6c4=O)OCC5C)o3)o2)cc1 (stereo not drawn),5.7 to 24.7
11,COc1ccc(-c2nnc(CSc3nnc(-c4cn5c6c(c(N7CCN(C)CC7)c(F)cc6c4=O)OCC5C)o3)o2)cc1 (stereo not drawn),5.7 to 24.7
12,COc1ccccc1-c1nnc(CSc2nnc(-c3cn(C4CC4)c4cc(N5CCN(C)CC5)c(F)cc4c3=O)o2)o1,2.4 to 32.4
13,CC1COc2c(N3CCN(C)CC3)c(F)cc3c(=O)c(-c4nnc(SCc5nnc(-c6ccccc6)o5)o4)cn1c23 (stereo not drawn),5.7 to 24.7
14,Cc1ccc(-c2nnc(CSc3nnc(-c4cn(C5CC5)c5cc(N6CCN(C)CC6)c(F)cc5c4=O)o3)o2)cc1,2.4 to 32.4
15,CC1COc2c(N3CCN(C)CC3)c(F)cc3c(=O)c(-c4nnc(SCc5nnc(-c6ccc([N+](=O)[O-])cc6)o5)o4)cn1c23 (stereo not drawn),5.7 to 24.7
16,CN1CCN(c2cc3c(cc2F)c(=O)c(-c2nnc(SCc4nnc(-c5ccc(Cl)cc5)o4)o2)cn3C2CC2)CC1,2.4 to 32.4
17,COc1cc(-c2nnc(CSc3nnc(-c4cn(C5CC5)c5cc(N6CCN(C)CC6)c(F)cc5c4=O)o3)o2)cc(OC)c1OC,2.4 to 32.4
18,COc1cc(-c2nnc(CSc3nnc(-c4cn5c6c(c(N7CCN(C)CC7)c(F)cc6c4=O)OCC5C)o3)o2)cc(OC)c1OC (stereo not drawn),5.7 to 24.7

# System: SMMC-7721
# Assay: Cytotoxicity against human SMMC7721 cells assessed as reduction in cell viability by MTT assay
# Assay type: functional, cell-based
row,Structure (SMILES),IC50 [µM]
1,CCn1cc(-c2nc(SCc3nnc(-c4ccc([N+](=O)[O-])cc4)o3)n(CN(C)C)n2)c(=O)c2cc(F)c(N3CCN(C)CC3)cc21,1.5 to 24.5
2,CCn1cc(-c2nc(SCc3nnc(-c4ccc(OC)cc4)o3)n(CN(C)C)n2)c(=O)c2cc(F)c(N3CCN(C)CC3)cc21,1.5 to 24.5
3,CCn1cc(-c2nc3scc(-c4ccc(F)cc4)n3n2)c(=O)c2cc(F)c(N3CCN(C)CC3)cc21,3.6 to 56.8
4,CCn1cc(-c2nc3scc(-c4ccc(OC)c(O)c4)n3n2)c(=O)c2cc(F)c(N3CCN(C)CC3)cc21,3.6 to 56.8
5,COc1ccccc1-c1csc2nc(-c3cn4c5c(c(N6CCN(C)CC6)c(F)cc5c3=O)OCC4C)nn12 (stereo not drawn),3.6 to 56.8
6,COc1cc(-c2csc3nc(-c4cn5c6c(c(N7CCN(C)CC7)c(F)cc6c4=O)OCC5C)nn23)ccc1O (stereo not drawn),3.6 to 56.8
7,COc1ccccc1-c1nnc(CSc2nnc(-c3cn4c5c(c(N6CCN(C)CC6)c(F)cc5c3=O)OCC4C)o2)o1 (stereo not drawn),5.7 to 24.7
8,CC1COc2c(N3CCN(C)CC3)c(F)cc3c(=O)c(-c4nc5scc(-c6ccc7c(c6)OCO7)n5n4)cn1c23 (stereo not drawn),3.6 to 56.8
9,CCn1cc(-c2nc3scc(-c4ccc5c(c4)OCO5)n3n2)c(=O)c2cc(F)c(N3CCN(C)CC3)cc21,3.6 to 56.8
10,Cc1ccc(-c2nnc(CSc3nnc(-c4cn5c6c(c(N7CCN(C)CC7)c(F)cc6c4=O)OCC5C)o3)o2)cc1 (stereo not drawn),5.7 to 24.7
11,COc1ccc(-c2nnc(CSc3nnc(-c4cn5c6c(c(N7CCN(C)CC7)c(F)cc6c4=O)OCC5C)o3)o2)cc1 (stereo not drawn),5.7 to 24.7
12,COc1ccccc1-c1nnc(CSc2nnc(-c3cn(C4CC4)c4cc(N5CCN(C)CC5)c(F)cc4c3=O)o2)o1,2.4 to 32.4
13,CC1COc2c(N3CCN(C)CC3)c(F)cc3c(=O)c(-c4nnc(SCc5nnc(-c6ccccc6)o5)o4)cn1c23 (stereo not drawn),5.7 to 24.7
14,Cc1ccc(-c2nnc(CSc3nnc(-c4cn(C5CC5)c5cc(N6CCN(C)CC6)c(F)cc5c4=O)o3)o2)cc1,2.4 to 32.4
15,CC1COc2c(N3CCN(C)CC3)c(F)cc3c(=O)c(-c4nnc(SCc5nnc(-c6ccc([N+](=O)[O-])cc6)o5)o4)cn1c23 (stereo not drawn),5.7 to 24.7
16,CN1CCN(c2cc3c(cc2F)c(=O)c(-c2nnc(SCc4nnc(-c5ccc(Cl)cc5)o4)o2)cn3C2CC2)CC1,2.4 to 32.4
17,COc1cc(-c2nnc(CSc3nnc(-c4cn(C5CC5)c5cc(N6CCN(C)CC6)c(F)cc5c4=O)o3)o2)cc(OC)c1OC,2.4 to 32.4
18,COc1cc(-c2nnc(CSc3nnc(-c4cn5c6c(c(N7CCN(C)CC7)c(F)cc6c4=O)OCC5C)o3)o2)cc(OC)c1OC (stereo not drawn),5.7 to 24.7

# System: CAPAN-1
# Assay: Cytotoxicity against human Capan1 cells assessed as reduction in cell viability by MTT assay
# Assay type: functional, cell-based
row,Structure (SMILES),IC50 [µM]
1,CN1CCN(c2cc3c(cc2F)c(=O)c(-c2nc4scc(-c5ccc([N+](=O)[O-])cc5)n4n2)cn3C2CC2)CC1,3.6 to 7.6
2,CCn1cc(-c2nc(SCc3nnc(-c4ccc([N+](=O)[O-])cc4)o3)n(CN(C)C)n2)c(=O)c2cc(F)c(N3CCN(C)CC3)cc21,1.5 to 24.5
3,CCn1cc(-c2nc(SCc3nnc(-c4ccc(OC)cc4)o3)n(CN(C)C)n2)c(=O)c2cc(F)c(N3CCN(C)CC3)cc21,1.5 to 24.5
4,CCn1cc(-c2nc3scc(-c4ccc(F)cc4)n3n2)c(=O)c2cc(F)c(N3CCN(C)CC3)cc21,3.6 to 56.8
5,CCn1cc(-c2nc3scc(-c4ccc(OC)c(O)c4)n3n2)c(=O)c2cc(F)c(N3CCN(C)CC3)cc21,3.6 to 56.8
6,COc1ccccc1-c1csc2nc(-c3cn4c5c(c(N6CCN(C)CC6)c(F)cc5c3=O)OCC4C)nn12 (stereo not drawn),3.6 to 56.8
7,COc1cc(-c2csc3nc(-c4cn5c6c(c(N7CCN(C)CC7)c(F)cc6c4=O)OCC5C)nn23)ccc1O (stereo not drawn),3.6 to 56.8
8,CC1COc2c(N3CCN(C)CC3)c(F)cc3c(=O)c(-c4nc5scc(-c6ccc7c(c6)OCO7)n5n4)cn1c23 (stereo not drawn),3.6 to 56.8
9,CCn1cc(-c2nc3scc(-c4ccc5c(c4)OCO5)n3n2)c(=O)c2cc(F)c(N3CCN(C)CC3)cc21,3.6 to 56.8

# System: Hep 3B2
# Assay: Cytotoxicity against human Hep3B cells assessed as reduction in cell viability by MTT assay
# Assay type: functional, cell-based
row,Structure (SMILES),IC50 [µM]
1,CN1CCN(c2cc3c(cc2F)c(=O)c(-c2nc4scc(-c5ccc([N+](=O)[O-])cc5)n4n2)cn3C2CC2)CC1,3.6 to 7.6
2,CCn1cc(-c2nc(SCc3nnc(-c4ccc([N+](=O)[O-])cc4)o3)n(CN(C)C)n2)c(=O)c2cc(F)c(N3CCN(C)CC3)cc21,1.5 to 24.5
3,CCn1cc(-c2nc(SCc3nnc(-c4ccc(OC)cc4)o3)n(CN(C)C)n2)c(=O)c2cc(F)c(N3CCN(C)CC3)cc21,1.5 to 24.5
4,CCn1cc(-c2nc3scc(-c4ccc(F)cc4)n3n2)c(=O)c2cc(F)c(N3CCN(C)CC3)cc21,3.6 to 56.8
5,CCn1cc(-c2nc3scc(-c4ccc(OC)c(O)c4)n3n2)c(=O)c2cc(F)c(N3CCN(C)CC3)cc21,3.6 to 56.8
6,COc1ccccc1-c1csc2nc(-c3cn4c5c(c(N6CCN(C)CC6)c(F)cc5c3=O)OCC4C)nn12 (stereo not drawn),3.6 to 56.8
7,COc1cc(-c2csc3nc(-c4cn5c6c(c(N7CCN(C)CC7)c(F)cc6c4=O)OCC5C)nn23)ccc1O (stereo not drawn),3.6 to 56.8
8,CC1COc2c(N3CCN(C)CC3)c(F)cc3c(=O)c(-c4nc5scc(-c6ccc7c(c6)OCO7)n5n4)cn1c23 (stereo not drawn),3.6 to 56.8
9,CCn1cc(-c2nc3scc(-c4ccc5c(c4)OCO5)n3n2)c(=O)c2cc(F)c(N3CCN(C)CC3)cc21,3.6 to 56.8

# System: HL-60
# Assay: Cytotoxicity against human HL60 cells assessed as reduction in cell viability by MTT assay
# Assay type: functional, cell-based
row,Structure (SMILES),IC50 [µM]
1,CN1CCN(c2cc3c(cc2F)c(=O)c(-c2nc4scc(-c5ccc([N+](=O)[O-])cc5)n4n2)cn3C2CC2)CC1,3.6 to 7.6
2,CCn1cc(-c2nc(SCc3nnc(-c4ccc([N+](=O)[O-])cc4)o3)n(CN(C)C)n2)c(=O)c2cc(F)c(N3CCN(C)CC3)cc21,1.5 to 24.5
3,CCn1cc(-c2nc(SCc3nnc(-c4ccc(OC)cc4)o3)n(CN(C)C)n2)c(=O)c2cc(F)c(N3CCN(C)CC3)cc21,1.5 to 24.5
4,CCn1cc(-c2nc3scc(-c4ccc(F)cc4)n3n2)c(=O)c2cc(F)c(N3CCN(C)CC3)cc21,3.6 to 56.8
5,CCn1cc(-c2nc3scc(-c4ccc(OC)c(O)c4)n3n2)c(=O)c2cc(F)c(N3CCN(C)CC3)cc21,3.6 to 56.8
6,COc1ccccc1-c1csc2nc(-c3cn4c5c(c(N6CCN(C)CC6)c(F)cc5c3=O)OCC4C)nn12 (stereo not drawn),3.6 to 56.8
7,COc1cc(-c2csc3nc(-c4cn5c6c(c(N7CCN(C)CC7)c(F)cc6c4=O)OCC5C)nn23)ccc1O (stereo not drawn),3.6 to 56.8
8,COc1ccccc1-c1nnc(CSc2nnc(-c3cn4c5c(c(N6CCN(C)CC6)c(F)cc5c3=O)OCC4C)o2)o1 (stereo not drawn),5.7 to 24.7
9,CC1COc2c(N3CCN(C)CC3)c(F)cc3c(=O)c(-c4nc5scc(-c6ccc7c(c6)OCO7)n5n4)cn1c23 (stereo not drawn),3.6 to 56.8
10,CCn1cc(-c2nc3scc(-c4ccc5c(c4)OCO5)n3n2)c(=O)c2cc(F)c(N3CCN(C)CC3)cc21,3.6 to 56.8
11,Cc1ccc(-c2nnc(CSc3nnc(-c4cn5c6c(c(N7CCN(C)CC7)c(F)cc6c4=O)OCC5C)o3)o2)cc1 (stereo not drawn),5.7 to 24.7
12,COc1ccc(-c2nnc(CSc3nnc(-c4cn5c6c(c(N7CCN(C)CC7)c(F)cc6c4=O)OCC5C)o3)o2)cc1 (stereo not drawn),5.7 to 24.7
13,COc1ccccc1-c1nnc(CSc2nnc(-c3cn(C4CC4)c4cc(N5CCN(C)CC5)c(F)cc4c3=O)o2)o1,2.4 to 32.4
14,CC1COc2c(N3CCN(C)CC3)c(F)cc3c(=O)c(-c4nnc(SCc5nnc(-c6ccccc6)o5)o4)cn1c23 (stereo not drawn),5.7 to 24.7
15,Cc1ccc(-c2nnc(CSc3nnc(-c4cn(C5CC5)c5cc(N6CCN(C)CC6)c(F)cc5c4=O)o3)o2)cc1,2.4 to 32.4
16,CC1COc2c(N3CCN(C)CC3)c(F)cc3c(=O)c(-c4nnc(SCc5nnc(-c6ccc([N+](=O)[O-])cc6)o5)o4)cn1c23 (stereo not drawn),5.7 to 24.7
17,CN1CCN(c2cc3c(cc2F)c(=O)c(-c2nnc(SCc4nnc(-c5ccc(Cl)cc5)o4)o2)cn3C2CC2)CC1,2.4 to 32.4
18,COc1cc(-c2nnc(CSc3nnc(-c4cn(C5CC5)c5cc(N6CCN(C)CC6)c(F)cc5c4=O)o3)o2)cc(OC)c1OC,2.4 to 32.4
19,COc1cc(-c2nnc(CSc3nnc(-c4cn5c6c(c(N7CCN(C)CC7)c(F)cc6c4=O)OCC5C)o3)o2)cc(OC)c1OC (stereo not drawn),5.7 to 24.7
